Experimental data taken from ChEMBL document CHEMBL1128246, “Synthesis and structure-activity relationships of oxamic acid and acetic acid derivatives related to L-thyronine” (J Med Chem, 1995).
Blank lines part the entries; values can stand above or below the compound they belong to.

Assays:
[1] = molecular target: T1, Thyroid hormone receptor beta (Rattus norvegicus, UniProt P18113); experiment: Ability to inhibit the bound [125I]L-T3 rat liver Nuclear L-triiodothyronine receptor is determined in vitro.
T1 sequence (P18113 whole entry): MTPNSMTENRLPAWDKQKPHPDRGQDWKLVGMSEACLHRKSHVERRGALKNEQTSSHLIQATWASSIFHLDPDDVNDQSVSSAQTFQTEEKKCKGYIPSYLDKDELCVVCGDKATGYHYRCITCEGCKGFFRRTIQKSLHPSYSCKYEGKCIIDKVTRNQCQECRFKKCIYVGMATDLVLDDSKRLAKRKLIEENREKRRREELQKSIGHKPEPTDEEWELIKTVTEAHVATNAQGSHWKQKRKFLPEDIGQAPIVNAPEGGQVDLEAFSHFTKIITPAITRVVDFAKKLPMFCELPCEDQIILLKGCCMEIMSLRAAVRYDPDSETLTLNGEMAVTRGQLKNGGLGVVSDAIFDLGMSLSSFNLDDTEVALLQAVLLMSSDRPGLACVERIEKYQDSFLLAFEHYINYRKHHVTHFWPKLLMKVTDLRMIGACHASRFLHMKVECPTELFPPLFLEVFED

Rattus norvegicus [2] = experiment: Dose which was not showing any cardiac effect in normal cholesterol rats upon peroral administration; assay type: functional
Rattus norvegicus [3] = experiment: Effective dose was determined in hypercholesterolemic rats for lowering total serum cholesterol compared to control upon peroral administration; assay type: functional; conditions: po
Rattus norvegicus [4] = experiment: Minimum effective dose was determined in hypercholesterolemic rats for lowering total cholesterol level compared to control upon peroral administration; assay type: functional; conditions: po, read-out: MED
Rattus norvegicus [5] = experiment: Percent change in serum LDL level was determined in hypercholesterolemic rats at 25 ug/Kg upon peroral administration; assay type: functional
Rattus norvegicus [6] = experiment: Percent change in serum HDL level was determined in hypercholesterolemic rats at 25 ug/Kg upon peroral administration; assay type: functional
Rattus norvegicus [7] = experiment: Percent change in serum HDL level was determined in hypercholesterolemic rats at 10 ug/Kg upon peroral administration; assay type: functional
Rattus norvegicus [8] = experiment: Percent change in serum LDL level was determined in hypercholesterolemic rats at 10 ug/Kg upon peroral administration; assay type: functional
Rattus norvegicus [9] = experiment: Percent change in serum LDL level was determined in hypercholesterolemic rats at 100 ug/Kg upon peroral administration; assay type: functional
Rattus norvegicus [10] = experiment: Percent change in serum HDL level was determined in hypercholesterolemic rats at 100 ug/Kg upon peroral administration; assay type: functional

SMILES: CC(C)c1cc(Oc2c(I)cc(NCC(=O)O)cc2I)ccc1O
IC50 [1]: 0.00031 µM

SMILES: CC(C)c1cc(Oc2c(Br)cc(SCC(=O)O)cc2Br)ccc1O
IC50 [1]: 0.0015 µM

SMILES: Cc1cc(CCC(=O)O)cc(C)c1Oc1ccc(O)c(C(C)C)c1
IC50 [1]: > 5 µM

SMILES: CC(C)c1cc(Oc2c(Br)cc(CCC(=O)O)cc2Br)ccc1O
IC50 [1]: 0.00011 µM

SMILES: CC(C)c1cc(Oc2c(Cl)cc(NC(=O)C(=O)O)cc2Cl)ccc1O
Dose (Rattus norvegicus [2]): 10 mg/kg
ED50 (Rattus norvegicus [3]): 0.05 mg/kg
minimal effective dose (Rattus norvegicus [4]): 0.0125 mg/kg

SMILES: CC(C)c1cc(Oc2c(Br)cc(OCC(=O)O)cc2Br)ccc1O
IC50 [1]: 0.0001 µM

SMILES: Cc1cc(NC(Cc2ccccc2)C(=O)O)cc(C)c1Oc1ccc(O)c(C(C)C)c1 (stereo unspecified)
IC50 [1]: 0.4 µM

SMILES: Cc1cc(NCC(=O)O)cc(C)c1Oc1ccc(O)c(C(C)C)c1
IC50 [1]: 0.012 µM

SMILES: Cc1cc(NC(=O)C(=O)O)cc(C)c1Oc1ccc(O)c(C(C)C)c1
Change (Rattus norvegicus [5]): -67%
Change (Rattus norvegicus [6]): -5%
Dose (Rattus norvegicus [2]): 10 mg/kg
ED50 (Rattus norvegicus [3]): 0.02 mg/kg
minimal effective dose (Rattus norvegicus [4]): 0.01 mg/kg

SMILES: CCOC(=O)C(=O)Nc1cc(C)c(Oc2ccc(O)c(C(O)c3ccc(F)cc3)c2)c(C)c1 (stereo in doubt; 23a) [AXITIROME]
Dose (Rattus norvegicus [2]): >25 mg/kg
ED50 (Rattus norvegicus [3]): 0.005 mg/kg
minimal effective dose (Rattus norvegicus [4]): < 0.001 mg/kg
Change (Rattus norvegicus [7]): 0%
Change (Rattus norvegicus [8]): -73%

SMILES: N[C@@H](Cc1cc(I)c(Oc2ccc(O)c(I)c2)c(I)c1)C(=O)O [LIOTHYRONINE]
Change (Rattus norvegicus [9]): -65%
Dose (Rattus norvegicus [2]): <0.025 mg/kg
ED50 (Rattus norvegicus [3]): 0.1 mg/kg
Change (Rattus norvegicus [10]): -8%
minimal effective dose (Rattus norvegicus [4]): 0.025 mg/kg

The remaining lines, values ahead:

IC50 [1]: 0.058 µM
SMILES: CC(C)c1cc(Oc2c(Cl)cc(NC(Cc3ccccc3)C(=O)O)cc2Cl)ccc1O (stereo unspecified)

IC50 [1]: 0.55 µM
SMILES: Cc1cc(NC(C)C(=O)O)cc(C)c1Oc1ccc(O)c(C(C)C)c1 (stereo unspecified)

IC50 [1]: 0.0011 µM
SMILES: CC(C)c1cc(Oc2c(Cl)cc(NCC(=O)O)cc2Cl)ccc1O

IC50 [1]: 0.034 µM
SMILES: CCOC(=O)C(=O)Nc1cc(C)c(Oc2ccc(OC)c(C(O)c3ccc(F)cc3)c2)c(C)c1 (stereo unspecified)

IC50 [1]: 0.0035 µM
SMILES: Cc1cc(SCC(=O)O)cc(C)c1Oc1ccc(O)c(C(C)C)c1

IC50 [1]: 0.048 µM
SMILES: CC(Nc1cc(Cl)c(Oc2ccc(O)c(C(C)C)c2)c(Cl)c1)C(=O)O (stereo unspecified)
